# Measurements: ChEMBL document CHEMBL4043269, “Synthesis and structure activity relationships of carbamimidoylcarbamate derivatives as novel vascular adhesion protein-1 inhibitors” (Bioorg Med Chem, 2017)
# Tests used:
# Rattus norvegicus [1] = assay: In vivo inhibition of VAP-1 in Wistar rat plasma at 0.3 mg/kg, po after 6 hrs in presence of [14C]-benzylamine by liquid scintillation counting analysis relative to control; assay type: functional
# [2] = Aqueous solubility of compound in Japanese pharmacopoeia second fluid at pH 6.8 at 130 uM after 20 hrs by HPLC analysis; assay type: physicochemical
# CYP1A2 = biological target: T1, CYP1A2 (Homo sapiens, UniProt P05177); assay: Inhibition of CYP1A2 in human liver microsomes using phenacetin as substrate assessed as residual activity at 5 uM after 20 mins by HPLC analysis; assay type: ADME; settings: probe phenacetin, read-out: Activity
# T1 sequence (P05177 whole entry): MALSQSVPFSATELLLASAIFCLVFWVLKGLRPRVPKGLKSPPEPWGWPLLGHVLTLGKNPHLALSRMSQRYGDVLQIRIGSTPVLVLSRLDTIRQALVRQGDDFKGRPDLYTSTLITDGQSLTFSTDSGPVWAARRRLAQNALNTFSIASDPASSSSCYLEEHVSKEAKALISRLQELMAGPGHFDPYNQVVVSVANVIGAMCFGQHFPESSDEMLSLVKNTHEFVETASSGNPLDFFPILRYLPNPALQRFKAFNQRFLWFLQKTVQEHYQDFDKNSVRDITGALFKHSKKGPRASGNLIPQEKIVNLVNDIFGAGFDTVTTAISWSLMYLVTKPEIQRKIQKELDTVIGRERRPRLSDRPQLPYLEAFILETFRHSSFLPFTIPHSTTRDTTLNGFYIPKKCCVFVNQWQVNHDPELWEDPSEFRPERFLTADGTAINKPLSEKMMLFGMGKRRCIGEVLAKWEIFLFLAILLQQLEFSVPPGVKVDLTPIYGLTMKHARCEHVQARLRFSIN
# CYP2C8 = biological target: T2, CYP2C8 (Homo sapiens, UniProt P10632); assay: Inhibition of CYP2C8 in human liver microsomes using amodiaquine as substrate assessed as residual activity at 5 uM after 20 mins by HPLC analysis; assay type: ADME; settings: probe amodiaquine, read-out: Activity
# T2 sequence (P10632 whole entry): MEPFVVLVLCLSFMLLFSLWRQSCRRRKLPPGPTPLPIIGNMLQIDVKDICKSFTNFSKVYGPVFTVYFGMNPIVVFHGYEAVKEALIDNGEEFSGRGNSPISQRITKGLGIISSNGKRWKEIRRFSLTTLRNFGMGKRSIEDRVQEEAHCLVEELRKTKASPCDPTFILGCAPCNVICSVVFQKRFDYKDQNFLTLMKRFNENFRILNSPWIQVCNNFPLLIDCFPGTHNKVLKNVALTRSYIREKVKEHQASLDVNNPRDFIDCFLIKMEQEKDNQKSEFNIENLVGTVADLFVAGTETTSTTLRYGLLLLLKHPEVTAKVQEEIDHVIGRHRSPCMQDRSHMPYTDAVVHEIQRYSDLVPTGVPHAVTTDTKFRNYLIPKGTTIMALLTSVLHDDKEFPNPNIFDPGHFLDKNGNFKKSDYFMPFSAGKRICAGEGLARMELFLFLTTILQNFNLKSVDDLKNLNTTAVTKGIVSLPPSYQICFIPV
# CYP2C19 = CYP2C19 (Homo sapiens, UniProt P33261); assay: Inhibition of CYP2C19 in human liver microsomes using S-mephenytoin as substrate assessed as residual activity at 5 uM after 20 mins by HPLC analysis; assay type: ADME; settings: probe S-mephenytoin, read-out: Activity
# Sequence of CYP2C19 (P33261 whole entry): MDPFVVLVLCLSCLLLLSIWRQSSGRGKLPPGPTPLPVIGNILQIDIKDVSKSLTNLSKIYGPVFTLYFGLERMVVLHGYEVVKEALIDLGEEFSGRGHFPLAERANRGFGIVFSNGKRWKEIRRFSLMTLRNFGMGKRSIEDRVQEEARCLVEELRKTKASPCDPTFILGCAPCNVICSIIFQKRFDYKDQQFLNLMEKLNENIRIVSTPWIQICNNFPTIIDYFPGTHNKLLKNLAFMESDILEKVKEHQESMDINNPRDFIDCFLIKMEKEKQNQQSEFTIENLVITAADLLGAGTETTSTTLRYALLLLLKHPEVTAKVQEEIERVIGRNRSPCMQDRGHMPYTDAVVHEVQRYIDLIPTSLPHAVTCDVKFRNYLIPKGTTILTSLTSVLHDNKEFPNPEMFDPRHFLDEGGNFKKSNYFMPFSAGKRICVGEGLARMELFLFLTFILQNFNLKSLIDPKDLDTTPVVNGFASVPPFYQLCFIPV
# CYP2D6 = CYP2D6 (Homo sapiens, UniProt P10635); assay: Inhibition of CYP2D6 in human liver microsomes using dextromethorphan as substrate assessed as residual activity at 5 uM after 20 mins by HPLC analysis; assay type: ADME; settings: probe dextromethorphan, read-out: Activity
# Sequence of CYP2D6 (P10635 whole entry): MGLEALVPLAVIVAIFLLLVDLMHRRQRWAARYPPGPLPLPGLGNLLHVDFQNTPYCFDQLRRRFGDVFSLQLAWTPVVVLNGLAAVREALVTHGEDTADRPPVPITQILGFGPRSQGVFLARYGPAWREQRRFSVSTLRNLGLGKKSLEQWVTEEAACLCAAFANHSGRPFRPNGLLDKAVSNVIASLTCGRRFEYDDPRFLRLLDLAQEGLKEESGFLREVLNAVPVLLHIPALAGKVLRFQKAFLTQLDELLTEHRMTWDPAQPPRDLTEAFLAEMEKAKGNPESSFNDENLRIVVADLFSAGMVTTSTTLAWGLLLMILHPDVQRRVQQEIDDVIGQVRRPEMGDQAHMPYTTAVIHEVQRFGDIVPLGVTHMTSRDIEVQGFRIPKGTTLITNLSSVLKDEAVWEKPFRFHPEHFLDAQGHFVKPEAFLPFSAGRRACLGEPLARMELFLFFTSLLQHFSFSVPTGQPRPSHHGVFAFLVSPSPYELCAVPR
# CYP3A4 = CYP3A4 (Homo sapiens, UniProt P08684); assay: Inhibition of CYP3A4 in human liver microsomes using midazolam as substrate assessed as residual activity at 5 uM after 20 mins by HPLC analysis; assay type: ADME; settings: probe midazolam, read-out: Activity
# Sequence of CYP3A4 (P08684 whole entry): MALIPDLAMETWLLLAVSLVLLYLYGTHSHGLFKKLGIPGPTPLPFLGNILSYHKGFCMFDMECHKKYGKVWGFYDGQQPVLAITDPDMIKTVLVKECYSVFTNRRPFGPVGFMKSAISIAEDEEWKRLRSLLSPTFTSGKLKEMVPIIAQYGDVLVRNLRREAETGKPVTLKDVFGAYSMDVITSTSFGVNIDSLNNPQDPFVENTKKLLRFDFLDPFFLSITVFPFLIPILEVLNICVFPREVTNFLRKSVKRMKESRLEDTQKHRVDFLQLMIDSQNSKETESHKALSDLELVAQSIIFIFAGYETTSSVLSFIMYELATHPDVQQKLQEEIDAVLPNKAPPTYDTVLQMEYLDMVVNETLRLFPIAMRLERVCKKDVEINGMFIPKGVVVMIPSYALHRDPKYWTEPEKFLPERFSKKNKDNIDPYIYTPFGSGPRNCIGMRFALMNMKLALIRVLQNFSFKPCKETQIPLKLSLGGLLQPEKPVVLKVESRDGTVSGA
# Rattus norvegicus [3] = assay: In vivo inhibition of VAP-1 in Wistar rat plasma at 0.3 mg/kg, po after 1 hr in presence of [14C]-benzylamine by liquid scintillation counting analysis relative to control; assay type: functional
# [4] = AUC in Beagle dog at 0.2 mg/kg, iv by LC-MS/MS analysis; assay type: ADME, organism-based, Canis lupus familiaris; settings: in vivo
# [5] = Half life in Beagle dog at 0.2 mg/kg, iv by LC-MS/MS analysis; assay type: ADME, organism-based, Canis lupus familiaris; settings: in vivo
# [6] = AUC in Sprague-Dawley rat at 1 mg/kg, iv by LC-MS/MS analysis; assay type: ADME, organism-based; settings: in vivo
# [7] = Half life in Sprague-Dawley rat at 1 mg/kg, iv by LC-MS/MS analysis; assay type: ADME, organism-based; settings: in vivo
# [8] = Volume of distribution at steady state in Sprague-Dawley rat at 1 mg/kg, iv by LC-MS/MS analysis; assay type: ADME, organism-based; settings: in vivo, read-out: Vdss
# [9] = Total clearance in Sprague-Dawley rat at 1 mg/kg, iv by LC-MS/MS analysis; assay type: ADME, organism-based; settings: in vivo
# [10] = Volume of distribution at steady state in Beagle dog at 0.2 mg/kg, iv by LC-MS/MS analysis; assay type: ADME, organism-based, Canis lupus familiaris; settings: in vivo, read-out: Vdss
# [11] = Total clearance in Beagle dog at 0.2 mg/kg, iv by LC-MS/MS analysis; assay type: ADME, organism-based, Canis lupus familiaris; settings: in vivo
# [12] = AUC in cynomolgus monkey at 0.2 mg/kg, iv by LC-MS/MS analysis; assay type: ADME, organism-based, Macaca fascicularis; settings: in vivo
# [13] = Half life in cynomolgus monkey at 0.2 mg/kg, iv by LC-MS/MS analysis; assay type: ADME, organism-based, Macaca fascicularis; settings: in vivo
# [14] = Volume of distribution at steady state in cynomolgus monkey at 0.2 mg/kg, iv by LC-MS/MS analysis; assay type: ADME, organism-based, Macaca fascicularis; settings: in vivo, read-out: Vdss
# [15] = Total clearance in cynomolgus monkey at 0.2 mg/kg, iv by LC-MS/MS analysis; assay type: ADME, organism-based, Macaca fascicularis; settings: in vivo
# [16] = AUC in Sprague-Dawley rat at 1 mg/kg, po by LC-MS/MS analysis; assay type: ADME, organism-based; settings: in vivo
# [17] = AUC in Beagle dog at 0.2 mg/kg, po by LC-MS/MS analysis; assay type: ADME, organism-based, Canis lupus familiaris; settings: in vivo
# [18] = AUC in cynomolgus monkey at 0.2 mg/kg, po by LC-MS/MS analysis; assay type: ADME, organism-based, Macaca fascicularis; settings: in vivo
# [19] = Cmax in Sprague-Dawley rat at 1 mg/kg, po by LC-MS/MS analysis; assay type: ADME, organism-based; parameters: dose 1 mg/kg, route oral; settings: in vivo
# [20] = Cmax in Beagle dog at 0.2 mg/kg, po by LC-MS/MS analysis; assay type: ADME, organism-based, Canis lupus familiaris; parameters: dose 0.2 mg/kg, route oral; settings: in vivo
# [21] = Cmax in cynomolgus monkey at 0.2 mg/kg, po by LC-MS/MS analysis; assay type: ADME, organism-based, Macaca fascicularis; parameters: dose 0.2 mg/kg, route oral; settings: in vivo
# [22] = Tmax in Sprague-Dawley rat at 1 mg/kg, po by LC-MS/MS analysis; assay type: ADME, organism-based; settings: in vivo
# [23] = Tmax in Beagle dog at 0.2 mg/kg, po by LC-MS/MS analysis; assay type: ADME, organism-based, Canis lupus familiaris; settings: in vivo
# [24] = Tmax in cynomolgus monkey at 0.2 mg/kg, po by LC-MS/MS analysis; assay type: ADME, organism-based, Macaca fascicularis; settings: in vivo
# [25] = Oral bioavailability in Sprague-Dawley rat at 1 mg/kg by LC-MS/MS analysis; assay type: ADME, organism-based; settings: in vivo
# [26] = Oral bioavailability in Beagle dog at 0.2 mg/kg by LC-MS/MS analysis; assay type: ADME, organism-based, Canis lupus familiaris; settings: in vivo
# [27] = Oral bioavailability in cynomolgus monkey at 0.2 mg/kg by LC-MS/MS analysis; assay type: ADME, organism-based, Macaca fascicularis; settings: in vivo
structure (smiles),measurement,setting,value
Cc1ccc(OC2CN(c3cccc(COC(=O)NC(=N)N)c3F)C2)cn1.O=C(O)C(O)C(O)C(=O)O,inhibition in vivo at 0.3 mg/kg,Rattus norvegicus [1],74%
same,"solubility at 20 h, 130 µM",[2],≥ 100 µM
same,"activity at 20 min, 5 µM",CYP1A2,99%
same,"activity at 20 min, 5 µM",CYP2C8,91%
same,"activity at 20 min, 5 µM",CYP2C19,99%
same,"activity at 20 min, 5 µM",CYP2D6,95%
same,"activity at 20 min, 5 µM",CYP3A4,85%
same,inhibition in vivo at 0.3 mg/kg,Rattus norvegicus [3],92%
same,AUC,[4],380 ng·h/mL
same,half-life,[5],8.9 h
same,AUC,[6],3200 ng·h/mL
same,half-life,[7],3.3 h
same,Vd,[8],1.06 L/kg
same,clearance,[9],5.2 mL/min/kg
same,Vd,[10],4.43 L/kg
same,clearance,[11],8.9 mL/min/kg
same,AUC,[12],5350 ng·h/mL
same,half-life,[13],64 h
same,Vd,[14],1.39 L/kg
same,clearance,[15],0.7 mL/min/kg
same,AUC,[16],2320 ng·h/mL
same,AUC,[17],297 ng·h/mL
same,AUC,[18],4510 ng·h/mL
same,Cmax,[19],401 ng/mL
same,Cmax,[20],29.9 ng/mL
same,Cmax,[21],201 ng/mL
same,Tmax,[22],0.8 h
same,Tmax,[23],0.8 h
same,Tmax,[24],2.7 h
same,bioavailability,[25],73%
same,bioavailability,[26],78%
same,bioavailability,[27],85%
